From patent US5013546A, “Methods for modulating antibody production in treating patients with AIDS, ARC and other diseases” (Imreg, Inc., priority 1990, dated 1991)

Key:
[1] = system: patient with common variable immunodeficiency, insufficient immunoglobulin production; assay: Titration of amplifier dosage, patient with common variable immunodeficiency; assay type: in vivo, human; conditions: 20 to 80 pg intradermal biweekly for eight weeks, 80 kg patient; before 350 ml/dl
Experimental: A patient suffers from common variable immunodeficiency, and they have an lowered serum immunoglobulin (IgG) level ([…]), indicative to the attending physician of insufficient immunoglobulin production. The physician considers it therapeutically desirable to raise the patient's level of immunoglobulin production.
(§1) The patient weighs 80 kg. The physician therefore administers intradermal injections of 20 to 80 pg of ZB-4 (0.25 to 1 pg/kg of body weight) in sterile saline, biweekly, for eight weeks, and then retests. (The appropriate amount is determined by trial and error, and is subject to the physician's discretion. It is believed that 1 pg/kg is an appropriate starting point for such trial and error determination in the case of insufficient Ig production.)

[2] = per 1 fg of the peptide; cited from earlier work
[3] = system: patients with AIDS or ARC with elevated IgG and IgA; assay: AIDS/ARC patients, effect of amplifier on serum Ig levels; assay type: in vivo, human; conditions: 50 pg biweekly, protocol of Example 10
Experimental: A group of 14 patients with AIDS or ARC were treated biweekly with a standard dosage of IMREG-1 (Beta-1.0), until six doses were given. All 14 initially had elevated IgG production and 13 also had elevated IgA production.
Data was averaged for the 14 high-IgG and 13 high-IgA patients.
A group of patients with AIDS or ARC are treated biweekly with 50 pg of ZB-4, according to the protocol of Example 10.
A group of patients with AIDS or ARC are treated biweekly with 50 pg of Beta-1.11, according to the protocol of Example 10.
A group of patients with AIDS or ARC are treated biweekly with 50 pg of Beta-1.12, according to the protocol of Example 10.

[4] = system: immunoglobulin-producing cells (plaque forming cells) in pokeweed mitogen-exposed PBLs; assay: RHPFC assay, PWM-stimulated PBLs of a normal subject cultured 6 days with amplifier; assay type: cell-based, human; conditions: averaged data
Experimental: In order to ascertain whether modulation of B-cell response is appropriate in a particular subject, and to titrate administration of amplifier appropriately for that subject, it is desirable to have a method for assaying the subject's immunoglobulin response. The method described below cultures mitogen-exposed cells in the presence and absence of added amplifier. Then the formation of plaque forming cells (PFCs) is assayed by a reverse hemolytic assay to determine whether and to what extent amplifier modulates formation of PFCs. A dose-dependent amplifier modulation of PFC formation is observed. The PFC assay described hereinafter is a modification of a conventional technique; it is believed that PFC assays have not hitherto been utilized to assess effects of the immunomodulators described herein.
Peripheral blood cell populations (hereinafter PBLs) from test subjects are prepared to isolate mononuclear cells, using conventional methods. The PBLs are adjusted to 10^6 cells/ml in RPM-1640 medium with 25 mM HEPES and L-glutamine (Whittaker Bioproducts), which has been supplemented with 10% heat-inactivated defined fetal bovine serum (Hy-Clone Labs.), 2% PSN Antibiotic (GIBCO Labs., Grand Island, N.Y.) (100×), and 1% extra L-glutamine (GIBCO Labs.) (100×). The resulting PBL mixture is set aside in an ice bucket (4° C.). […]

[5] = system: immunoglobulin-producing cells (plaque forming cells) in PWM-activated PBLs; assay: Modified RHPFC assay, amplifier added after B cells were potentiated (7th day); assay type: cell-based, human; conditions: amplifier added after potentiation
Experimental: The foregoing protocol 1 was then altered to test the in vitro effect of adding amplifiers Beta-1.0 or Beta-1.11 to the culture after B cells had already been potentiated (differentiated). Therefore, no amplifier was mixed with the PWM-activated cells at the outset, as in Example 1. Instead, at the stage where 1.12% agarose and Protein A-SRBC reagent are added (here, the 7th day), 25 ul of different amplifier dilutions is also added to the various replicates. The protocol was otherwise the same.
The procedure of Example 6 was repeated with the modified protocol just described.

[6] = system: patient with AIDS or ARC, excessive immunoglobulin production; assay: Titration of amplifier dosage, AIDS or ARC patient with elevated serum IgG; assay type: in vivo, human; conditions: 20 to 80 pg intradermal biweekly for eight weeks, 80 kg patient; before greater than 1400 mg/dl
Experimental: A patient suffers from AIDS or ARC, and they have an elevated serum immunoglobulin (IgG) level (greater than 1400 mg/dl), indicative to the attending physician of excessive immunoglobulin production. The physician considers it therapeutically desirable to lower the patient's level of immunoglobulin production.
as §1, with “The physician assays the patient's immunoglobulin response by the protocol of Examples 1-4, or alternative as in Example using ZB-4 (Beta-1.11). The patient” for “The patient”, “believed that 0.25 pg/kg is” for “believed that 1 pg/kg is”, “case of excessive Ig production.)” for “case of insufficient Ig production.)”

Row | Substance | serum immunoglobulin level (IgG) after treatment [1] [mg/dL] | amount of Beta-1.0 with approximately the same immunological activity as 1 fg [2] | effect on Ig levels [3] | maximum PFC factor relative to control ([4]; at 100 to 150 pM) | minimum PFC factor relative to control ([4]; between 1 and 10 pM) | concentration at maximum PFC factor [5] [pM] | maximum PFC factor relative to control [5] | minimum PFC factor [5] | serum immunoglobulin (IgG) level after treatment [6] [mg/dL]
1 | Tyr-Gly [ZB-4] | 710 | 5-10 fg | Substantially the same results are observed as were observed in Example 10 | from about half again to double the control PFC factor | from about a quarter to a half the control PFC factor | 300 to 400 | slightly less than the control | approximately 35 % of the control PFC factor | 1280
2 | Tyr-Gly-Gly [Beta-1.12] | – | 5-10 fg | Substantially the same results are observed as were observed in Example 10 | – | – | – | – | – | –
